1 compound from US20160368943A1, “SUBSTITUTED PURINE COMPOUNDS” (EPIZYME, INC., priority 2013, published 2016) can be followed below.

The structures appear in SMILES notation. Where only a bound is given, the exact number is not on record here.

The data set can be described thus: Hepatocyte stability, human. The data set is classed as in vitro ADME. The method, then: Human, Beagle dog, Sprague-Dawley rat, and CD-1 mouse cryopreserved hepatocytes were obtained from XenoTech and stored at −150° C. until use. The hepatocytes were thawed and prepared according to the vendor's instructions, pooled into Krebs Henseleit buffer (KHB, pH 7.4), and kept on ice prior to initiating an experiment. […] The reaction mixture was incubated in a shaking water bath at 37° C. Aliquots of the incubation solutions were sampled at 0, 15, 30, 60, and 120 minutes. The reaction was immediately terminated by the addition of three volumes of ice-cold acetonitrile containing 0.1% formic acid and internal standards. After centrifugation at 1640×g for 10 minutes, the supernatants were transferred into HPLC vials, and the test compound was analyzed by LC-MS/MS. Positive controls, testosterone (20 μM) and 7-hydroxycoumarin (100 μM), were performed in parallel to confirm the enzyme activities of the hepatocytes used.
Experimental half-lives were transformed to the corresponding intrinsic clearance values and subsequently scaled to predicted in vivo clearance values, using the well-stirred model as previously described (Houston, Biochemical Pharmacology 47(9): 1469-1479, 1994; Obach, Drug Metabolism and Disposition 27(11): 1350-1359, 1999), with appropriate species-specific scaling factors (Barter et al., Current Drug Metabolism 8(1): 33-45, 2007).

As for `CC(C)N(C[C@H]1O[C@@H](n2cnc3c(N)ncnc32)[C@H](O)[C@@H]1O)[C@H]1C[C@@H](CCc2nc3cc(C(C)(C)C)ccc3[nH]2)C1` [Compound A, (2R,3R,4S,5R)-2-(6-amino-9H-purin-9-yl)-5-((((1r,3S)-3-(2-(5-(tert-butyl)-1H-benzo[d]imidazol-2-yl)ethyl)cyclobutyl)(isopropyl)amino)methyl)tetrahydrofuran-3,4-diol], the “Scaled Hepatic CL from hepatocytes” value was <3 mL/min/kg.
